Measurements: patent US20260008760A1, “DIPEPTIDYL PEPTIDASE 1 INHIBITORS AND USES THEREOF” (Insmed Incorporated, priority 2024, published 2026)

Legend:
[1] = molecular target: DPP1 in HL-60 cells (Homo sapiens, UniProt P53634); assay: DPP1 Cell Single-Point Percent Inhibition Testing; assay type: cell-based; design: host or cells: HL-60 cells; settings: final compound concentration 5 nM, n = 1
Protocol: Example 100. DPP1 Cell Single-Point Percent Inhibition Testing
HL-60 cells (ATCC; Manassas, VA) were maintained in RPMI-1640 supplemented with 20% heat-inactivated FBS and 1× Antibiotic Antimycotic (Cytiva; Marlborough, MA). Media was changed every three to four days and cells were not allowed to exceed 1×10^6 cells per mL. Prior to assay, cells were collected by centrifugation at 500 rcf for 3 minutes, resuspended in RPMI (with no additional supplements) and counted. Cells were diluted in RPMI to a concentration of 5×10^5 live cells per mL and transferred to black 96-well plates for assay, 60 μL per well. Test articles were diluted to 25 nM in RPMI plus 0.5% DMSO, and 20 μL was added to each assay well. Compound was allowed to pre-incubate with cells with gentle shaking at 100 rpm for 60 minutes at 37° C. in a cell culture incubator maintained at 5% CO2, after which 20 μL of 500 μM H-Gly-Phe-AFC cell-permeable substrate (MP Biomedicals; Solon, OH) in RPMI was added to each well, giving final compound concentration of 5 nM, a final substrate concentration of 100 μM and a final DMSO concentration of 0.1%. Plates were returned to the incubator with shaking at 100 rpm for 30 minutes, after which fluorescence was measured at Excitation/Emission 400/505 nm. Percent Inhibition was calculated from RFU values by first subtracting background values (wells in which RPMI was substituted for cells) from each well, and then subtracting background-subtracted RFU derived from wells that received a final concentration of 10 μM brensocatib. This value represents the non-specific substrate cleavage from the HL-60 cells, and the remaining RFU should theoretically be solely the contribution of DPP1 enzyme activity. The final percent inhibition value was calculated for each test article based on remaining RFU compared to RFU from wells that received only vehicle control.

[2] = molecular target: human DPP1 enzyme (Homo sapiens, UniProt P53634); assay: Human DPP1 Enzyme Single-Point Percent Inhibition Testing (HL-60 lysate); assay type: biochemical; design: A crude lysate of HL-60 cells (ATCC; Manassas, VA) was used as a source of human DPP1 enzyme; host or cells: HL-60 cells (crude lysate); settings: final compound concentration of 10 nM, 400 μM H-Gly-Arg-AMC, n = 1
Protocol: Example 98. Human DPP1 Enzyme Single-Point Percent Inhibition Testing
A crude lysate of HL-60 cells (ATCC; Manassas, VA) was used as a source of human DPP1 enzyme in the assay. Lysate was prepared in 1% Triton X-100 in PBS at a concentration of 20,000 live cells per μL of lysis buffer and was centrifuged at 16,000 rcf for 10 minutes at 4° C., after which supernatant was collected and flash-frozen in liquid nitrogen. Test articles were applied to human DPP1 enzyme in Assay Buffer (25 mM MES pH 6.0, 50 mM NaCl, 5 mM DTT) in a total reaction volume of 125 μL. 25 μL of compound diluted to 50 nM in Assay Buffer plus 5% DMSO was first added to 50 μL of HL-60 lysate diluted to contain a DPP1 enzyme concentration of roughly 1 ng/μL and allowed to pre-incubate for 10 minutes at 37° C. after which 50 μL of 1000 μM H-Gly-Arg-AMC substrate (Bachem; St. Torrance, CA) was added, giving final compound concentration of 10 nM, a final substrate concentration of 400 μM and a final DMSO concentration of 1%. Substrate cleavage was measured for 90 minutes at 37° C., with fluorescence at Excitation/Emission 350/450 nm measured every 5 minutes. DPP1 concentration was interpolated based on its activity relative to a standard curve of activated human recombinant DPP1 enzyme. Percent inhibition at 10 nM was calculated for each test article based on remaining DPP1 activity compared to enzyme activity in wells that received only vehicle control.

Sequence of human DPP1 enzyme (P53634 25-463): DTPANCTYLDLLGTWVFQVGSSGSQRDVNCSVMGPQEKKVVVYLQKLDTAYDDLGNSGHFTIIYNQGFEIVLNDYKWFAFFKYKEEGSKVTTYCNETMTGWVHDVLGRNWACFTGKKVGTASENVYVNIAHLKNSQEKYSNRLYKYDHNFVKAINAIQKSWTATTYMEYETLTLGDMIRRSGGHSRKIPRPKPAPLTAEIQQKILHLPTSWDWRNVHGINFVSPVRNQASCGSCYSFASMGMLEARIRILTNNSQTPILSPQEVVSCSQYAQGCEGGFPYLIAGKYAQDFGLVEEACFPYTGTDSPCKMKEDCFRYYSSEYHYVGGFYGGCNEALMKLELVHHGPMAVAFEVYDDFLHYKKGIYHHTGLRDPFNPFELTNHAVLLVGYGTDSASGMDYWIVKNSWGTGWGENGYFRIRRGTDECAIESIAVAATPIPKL
Sequence of DPP1 in HL-60 cells (P53634 25-463): as above

| SMILES | inhibition at 0.005 µM [1] [%] | inhibition at 0.01 µM [2] [%] |
| --- | --- | --- |
| CO[C@H]1CCO[C@H](C(=O)N[C@H](C#N)Cc2cc3c(cc2F)-c2ccc(C#N)cc2CO3)CNC1 [Compound B24] | ≤ 76.5 | 40 to 66.7 |
| CO[C@H]1CCO[C@H](C(=O)NC(C#N)Cc2cc3c(cc2F)-c2cc(C#N)ccc2CO3)CNC1 (some centres unmarked) [Compound B25] | ≤ 76.5 | 40 to 66.7 |
| CO[C@H]1CCO[C@H](C(=O)NC(C#N)Cc2cc3c(cc2F)-c2ccc(F)cc2CO3)CNC1 (some centres unmarked) [Compound B26] | ≤ 76.5 | 40 to 66.7 |
| N#Cc1ccc2c(c1)COc1cc(C[C@@H](C#N)NC(=O)[C@@H]3CNCCCCO3)c(F)cc1-2 [Compound B28] | ≤ 76.5 | 40 to 66.7 |
| N#Cc1ccc2c(c1)-c1cc(F)c(CC(C#N)NC(=O)[C@@H]3CNCCCCO3)cc1OC2 (some centres unmarked) [Compound B29] | ≤ 76.5 | ≤ 40 |
| N#C[C@H](Cc1cc2c(cc1F)-c1ccc(F)cc1CO2)NC(=O)[C@@H]1CNCCCCO1 [Compound B30] | ≤ 76.5 | ≤ 40 |
| N#CC(Cc1cc2c(cc1F)-c1cc(C3COC3)c(F)cc1CO2)NC(=O)[C@@H]1CNCCCO1 (some centres unmarked) [Compound B31] | 76.5 to 93.9 | 40 to 66.7 |
| N#C[C@H](Cc1cc2c(cc1F)-c1ccc(F)cc1CO2)NC(=O)[C@@H]1CNCCCO1 [Compound B34] | ≤ 76.5 | 40 to 66.7 |
| CO[C@@H]1CCNC[C@@H](C(=O)NC(C#N)Cc2cc3c(cc2F)-c2cc4c(cc2CO3)oc(=O)n4C)OC1 (some centres unmarked) [Compound C11] | 76.5 to 93.9 | ≥ 66.7 |
| COC1CNC[C@@H](C(=O)NC(C#N)Cc2cc3c(cc2F)-c2cc4c(cc2CO3)oc(=O)n4C)OC1 (some centres unmarked) [Compound C14] | ≤ 76.5 | ≥ 66.7 |
| CO[C@H]1CCO[C@H](C(=O)NC(C#N)Cc2cc3c(cc2F)-c2cc4c(cc2CO3)oc(=O)n4C)CNC1 (some centres unmarked) [Compound C16] | ≤ 76.5 | ≥ 66.7 |
| CO[C@H]1CCO[C@H](C(=O)NC(C#N)Cc2cc3c(cc2F)-c2ccc4oc(=O)n(C)c4c2CO3)CNC1 (some centres unmarked) [Compound C17] | ≤ 76.5 | 40 to 66.7 |
| C[C@@H]1NC[C@@H](C(=O)NC(C#N)Cc2cc3c(cc2F)-c2cc4c(cc2CO3)oc(=O)n4C)OC[C@H]1O (some centres unmarked) [Compound C19] | ≤ 76.5 | ≥ 66.7 |
| C[C@@H]1NC[C@@H](C(=O)NC(C#N)Cc2cc3c(cc2F)-c2ccc4oc(=O)n(C)c4c2CO3)OC[C@H]1O (some centres unmarked) [Compound C20] | ≤ 76.5 | ≥ 66.7 |
| C[C@@H]1NC[C@@H](C(=O)NC(C#N)Cc2cc3c(cc2F)-c2cc4c(cc2CO3)oc(=O)n4C)OC[C@@H]1O (some centres unmarked) [Compound C22] | ≤ 76.5 | ≥ 66.7 |
| C[C@@H]1NC[C@@H](C(=O)NC(C#N)Cc2cc3c(cc2F)-c2ccc4oc(=O)n(C)c4c2CO3)OC[C@@H]1O (some centres unmarked) [Compound C23] | ≤ 76.5 | 40 to 66.7 |
| Cn1c(=O)oc2cc3c(cc21)-c1cc(F)c(CC(C#N)NC(=O)[C@@H]2CNCCCCO2)cc1OC3 (some centres unmarked) [Compound C25] | 76.5 to 93.9 | ≥ 66.7 |

| SMILES | inhibition at 0.005 µM [1] [%] | inhibition at 0.01 µM [2] [%] |
| --- | --- | --- |
| Cn1c(=O)oc2ccc3c(c21)COc1cc(CC(C#N)NC(=O)[C@@H]2CNCCCCO2)c(F)cc1-3 (some centres unmarked) [Compound C26] | ≤ 76.5 | ≤ 40 |
| Cn1c(=O)oc2cc3c(cc21)-c1cc(F)c(CC(C#N)NC(=O)[C@@H]2CNCCCO2)cc1OC3 (some centres unmarked) [Compound C28] | 76.5 to 93.9 | ≥ 66.7 |
| CO[C@@H]1CCNC[C@@H](C(=O)N[C@H](C#N)Cc2ccc(-c3ccc4c(c3)C3(CCCN(C)C3)C(=O)N4C)cc2)OC1 (some centres unmarked) [Compound F7] | ≤ 76.5 | ≥ 66.7 |
| CO[C@@H]1CCNC[C@@H](C(=O)N[C@H](C#N)Cc2ccc(-c3ccc4c(c3)C3(CCN(C)C3)OC4=O)cc2)OC1 (some centres unmarked) [Compound F8] | ≤ 76.5 | ≥ 66.7 |
| CO[C@@H]1CCNC[C@@H](C(=O)N[C@H](C#N)Cc2ccc(-c3ccc4c(c3)C3(CCN(C5COC5)CC3)OC4)cc2)OC1 [Compound F9] | ≤ 76.5 | ≥ 66.7 |
| CO[C@@H]1CCNC[C@@H](C(=O)N[C@H](C#N)Cc2ccc(-c3ccc(CN4CCN(C)CC4)cc3)cc2)OC1 [Compound F10] | ≤ 76.5 | ≥ 66.7 |
| CO[C@@H]1CCNC[C@@H](C(=O)N[C@H](C#N)Cc2ccc(-c3ccc4c(c3)C3(CC4)CCN(C)CC3)cc2F)OC1 [Compound F11] | ≤ 76.5 | ≥ 66.7 |
| CO[C@@H]1CCNC[C@@H](C(=O)N[C@H](C#N)Cc2ccc(-c3ccc4c(c3)C3(CCCN(C)C3)C(=O)N4C)cc2F)OC1 (some centres unmarked) [Compound F12] | ≤ 76.5 | ≥ 66.7 |
| CO[C@@H]1CCNC[C@@H](C(=O)N[C@H](C#N)Cc2ccc(-c3ccc4c(c3)C3(CCN(C)C3)OC4=O)cc2F)OC1 (some centres unmarked) [Compound F14] | ≤ 76.5 | ≥ 66.7 |
| CO[C@@H]1CCNC[C@@H](C(=O)N[C@H](C#N)Cc2ccc(-c3ccc(CN4CCN(C)CC4)cc3)cc2F)OC1 [Compound F15] | ≤ 76.5 | ≥ 66.7 |
| CO[C@@H]1CCNC[C@@H](C(=O)N[C@H](C#N)Cc2ccc(-c3ccc(S(=O)(=O)N4CCC4)cc3)cc2)OC1 [Compound F16] | ≤ 76.5 | ≥ 66.7 |
| CO[C@@H]1CCNC[C@@H](C(=O)N[C@H](C#N)Cc2ccc(-c3ccc(S(=O)(=O)N4CCC4)cc3)cc2F)OC1 [Compound F17] | ≤ 76.5 | ≥ 66.7 |
| CO[C@H]1CCO[C@H](C(=O)N[C@H](C#N)Cc2ccc(-c3ccc4c(c3)C3(CC4)CCN(C)CC3)cc2)CNC1 [Compound F18] | ≤ 76.5 | ≥ 66.7 |
| CO[C@H]1CCO[C@H](C(=O)N[C@H](C#N)Cc2ccc(-c3ccc4c(c3)C3(CCCN(C)C3)C(=O)N4C)cc2)CNC1 (some centres unmarked) [Compound F19] | ≤ 76.5 | 40 to 66.7 |
| CO[C@H]1CCO[C@H](C(=O)N[C@H](C#N)Cc2ccc(-c3ccc4c(c3)C3(CN(C)C3)OC4=O)cc2)CNC1 [Compound F20] | ≤ 76.5 | 40 to 66.7 |
| CO[C@H]1CCO[C@H](C(=O)N[C@H](C#N)Cc2ccc(-c3ccc4c(c3)C3(CCN(C)C3)OC4=O)cc2)CNC1 (some centres unmarked) [Compound F21] | ≤ 76.5 | 40 to 66.7 |
| CO[C@H]1CCO[C@H](C(=O)N[C@H](C#N)Cc2ccc(-c3ccc4c(c3)C3(CCN(C5COC5)CC3)OC4)cc2)CNC1 [Compound F22] | ≤ 76.5 | 40 to 66.7 |
